Data as given in the supplement of paper PMC3937590.

Tests used:
Assay in all cases: -log10 GI50 (growth inhibition 50%) (-log10(M)); higher = more potent growth inhibition
SUM185PE = system: SUM185PE
Method in brief: (§1)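 Dose-response data came from breast cancer cell lines exposed to each compound for 72 hours at nine doses in 1:5 serial dilution, in triplicate, and read by luminescence relative to a time-zero plate. A Gompertz curve fitted by nonlinear least squares gave GI50, the molar concentration for the set level of growth inhibition, reported as its negative logarithm to base 10. Where a value equals the top dose, it carries a < qualifier.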

T47D = system: T47D
Method in brief: as §1

184B5 = system: 184B5
Method in brief: as §1

MDAMB231 = system: MDAMB231
Method in brief: as §1

MCF7 = system: MCF7
Method in brief: as §1

AU565 = system: AU565
Method in brief: as §1

MCF10A = system: MCF10A
Method in brief: as §1

MDAMB453 = system: MDAMB453
Method in brief: as §1

HS578T = system: HS578T
Method in brief: as §1

HCC1187 = system: HCC1187
Method in brief: as §1

T47D_KBluc = system: T47D_KBluc
Method in brief: as §1

SKBR3 = system: SKBR3
Method in brief: as §1

ZR751 = system: ZR751
Method in brief: as §1

SUM52PE = system: SUM52PE
Method in brief: as §1

SUM159PT = system: SUM159PT
Method in brief: as §1

HCC1806 = system: HCC1806
Method in brief: as §1

MDAMB361 = system: MDAMB361
Method in brief: as §1

HCC1419 = system: HCC1419
Method in brief: as §1

CAMA1 = system: CAMA1
Method in brief: as §1

ZR75B = system: ZR75B
Method in brief: as §1

Compound | -log10 GI50 (SUM185PE) | -log10 GI50 (T47D) | -log10 GI50 (184B5) | -log10 GI50 (MDAMB231) | -log10 GI50 (MCF7) | -log10 GI50 (AU565) | -log10 GI50 (MCF10A) | -log10 GI50 (MDAMB453) | -log10 GI50 (HS578T) | -log10 GI50 (HCC1187) | -log10 GI50 (T47D_KBluc) | -log10 GI50 (SKBR3) | -log10 GI50 (ZR751) | -log10 GI50 (SUM52PE) | -log10 GI50 (SUM159PT) | -log10 GI50 (HCC1806) | -log10 GI50 (MDAMB361) | -log10 GI50 (HCC1419) | -log10 GI50 (CAMA1) | -log10 GI50 (ZR75B)
COc1cc2c(Nc3ccc(NC(=O)c4ccccc4)cc3)ncnc2cc1OCCCN1CCOCC1 | 4.5 | 4.94 | < 4.3 | < 4.3 | < 4.48 | 5.82 | < 4.48 | < 4.3 | 5.88 | 6.39 | < 4.3 | 4.76 | 5.47 | 5.46 | 6.14 | < 4 | 5.41 | 5.32 | 5.02 | –
COc1ncc(-c2ccc3nccc(-c4ccnnc4)c3c2)cc1NS(=O)(=O)c1ccc(F)cc1F | – | 8.45 | 8.23 | 6.37 | 8.14 | 8.1 | 8.1 | 8.33 | 7.13 | 8.3 | 7.71 | 8.41 | 8.09 | 8.46 | 7.63 | 7.54 | 8.82 | 9.48 | 7.08 | 8.31
Cn1ncc(Cl)c1-c1cc(C(=O)N[C@H](CN)Cc2ccc(F)c(F)c2)oc1Cl | 6.28 | 7.35 | – | 5.09 | 6.91 | 6.09 | 5.03 | 7.2 | 5.58 | 8.02 | 6.48 | 6.93 | 8.26 | 6.3 | 6.28 | 5.25 | 6.65 | 7.72 | 7.02 | –
O=C1NC(=O)/C(=C/c2ccc(-c3ccc(F)cc3O)o2)S1 | – | 5.25 | 4.65 | < 4.48 | 4.8 | 4.88 | < 4.18 | 4.69 | 5.06 | 5.77 | < 4.48 | 4.4 | 5.2 | 4.69 | 5.23 | 5.25 | 4.78 | 4.69 | < 4.18 | 5.04
COc1cc(Nc2c(C#N)cnc3cc(OCCCN4CCN(C)CC4)c(OC)cc23)c(Cl)cc1Cl [Bosutinib] | – | – | 6.26 | 5.55 | 5.59 | 5.67 | 5.85 | – | 5.8 | 5.5 | < 4.48 | 5.41 | 4.94 | 5.85 | 5.86 | 5.69 | 5.9 | 5.97 | 5.11 | 5.15
CCN(CC)C(=S)SSC(=S)N(CC)CC [Disulfiram] | < 4.18 | 7.01 | 4.93 | 5.85 | 4.45 | 6.84 | 4.93 | 6.84 | 5.44 | 6.49 | 7 | 7.1 | – | 4.53 | 6.65 | – | 6.56 | < 4.18 | 4.85 | –
CO[C@H]1C[C@@H]2CC[C@@H](C)[C@@](O)(O2)C(=O)C(=O)N2CCCC[C@H]2C(=O)O[C@H]([C@H](C)C[C@@H]2CC[C@@H](OCCO)[C@H](OC)C2)CC(=O)[C@H](C)/C=C(\C)[C@@H](O)[C@@H](OC)C(=O)[C@H](C)C[C@H](C)/C=C/C=C/C=C/1C [Everolimus] | 5.8 | 5.92 | 5.55 | 4.27 | 6.46 | – | 6.08 | 7.59 | – | – | 5 | 6.84 | 7.55 | 7.73 | 6.36 | 4.61 | 8.35 | 8.4 | 8.15 | –
CSCC[C@H](NC(=O)[C@H](Cc1ccccc1)NC[C@@H](NC[C@@H](N)CS)C(C)C)C(=O)O [FTase inhibitor I] | – | < 4.48 | < 4.18 | < 4.18 | < 4.48 | < 4.48 | < 4.48 | < 4.18 | < 4.48 | < 4.48 | < 4.18 | < 4.48 | < 4.18 | 4.93 | 5 | < 4.48 | < 4.18 | < 4.18 | < 4.48 | < 4.48
Cc1cncc2cccc(S(=O)(=O)N3CCCN(C(=O)CN)C[C@@H]3C)c12 [Glycyl H1152] | – | 4.82 | < 4.18 | 4.58 | 4.67 | 5.14 | 5.28 | 4.58 | 5.82 | 6.22 | < 4.18 | 4.33 | 4.81 | 5.1 | 5.76 | < 4.18 | 4.65 | 4.77 | < 4.48 | < 4.18
CCCCCN(C)CCC(O)(P(=O)(O)O)P(=O)(O)O [Ibandronate sodium] | – | 4.46 | 3.62 | 4.21 | 4.31 | 3.74 | 3.39 | 3.97 | 5.03 | 3.77 | 3.92 | 4.05 | 4.16 | 4.47 | 4.37 | 4.44 | 4.83 | 5.12 | 3.82 | 3.84
CO[C@H]1C[C@@H]2CC[C@@H](C)[C@@](O)(O2)C(=O)C(=O)N2CCCC[C@H]2C(=O)O[C@H]([C@H](C)C[C@@H]2CC[C@@H](O)[C@H](OC)C2)CC(=O)[C@H](C)/C=C(\C)[C@@H](O)[C@@H](OC)C(=O)[C@H](C)C[C@H](C)/C=C/C=C/C=C/1C [Rapamycin] | 6.04 | 6.36 | < 4.48 | 5.78 | 6.84 | 7.62 | 6.34 | 7.31 | 4.35 | 7.78 | 5.65 | 8.09 | – | 8.52 | 7.34 | 4.01 | 6.22 | 8.36 | 7.82 | –
